Reference: patent US20240301003A1 (NoNO Inc., priority 2021, published 2024)
pEC50, pIC50: −log10 of the molar value. “Also recorded” adds a separate entry of the source. Where two headings read alike, the source gives them in different places. Where a SMILES comes first, the peptide text is derived from it. Where no end group is shown, it is not given here. [ ]: non-standard residue; d: D form.

Columns and labels:
[1] = rat, in vivo, sc, 25 mg/kg
Procedure: (§1) Rats were anaesthetized in the supine position (Isoflurane 1.5--%) and allowed to breath spontaneously in 0.5 L/min 02. The left femoral artery was cannulated for blood sampling.
(§2) Test agents were prepared at the stablish concentration in a total volume of vehicle. Pulmonary instillation was performed by intubation with a 14G catheter connected to a 1 cc syringe and the test agent will be delivered through the catheter. Subcutaneous (SQ or SC) injection was injected into the area of the left flank, no more than 2 ml of total volume per site.
(§3) Each dose was evaluated in 3 rats for each administration strategy. […] For the first experiment, evaluating two different administration routes (SQ and PI), blood samples were collected at 8 different timepoints: Pre and at 7 additional times (1, 2.5, 5, 10, 15, 30, 60 min) post dose (250 ul/sample).
(§4) HPLC quantification: Plasma was separated from blood and stored at −−−80° C. until used. […] Standard curves for HPLC were generated from plasma samples spiked with known quantities of test agent.

histamine release [2] = details: rat, in vivo, iv, 7.6 mg/kg
Procedure: (§5) Histamine levels were quantified by using commercially available histamine ELISA assay kit (Histamine ELISA-H1531-K01, Eagle Bioscience). The plates were coated with the plasma samples (50 ul/well) incubated for 60 minutes at room temperature on an orbital shaker with medium frequency. Then 100 ul of enzyme conjugate was added to the wells and incubated for 20 minutes at room temperature. […] The reaction was stopped with 100 ul H2SO4. Absorbance was determined on an ELISA plate reader at 450 nm.
(§6) Blood samples were taken at pre-injection and at 0, 1, 2.5, 5, 10, 15, 30- and 60-minutes post dose and used for histamine levels quantification using commercially available kit.

tPA = tPA (Homo sapiens, UniProt P00750)
PSD95PDZ2 [3] = biological target: T1, PSD95PDZ2 (Homo sapiens, UniProt P78352); experiment: Competitive ELISA with biotinylated-NA-1; details: for IC50's relative to each other: FIG. 11, within the margin of error
Target sequence in this assay (P78352 160-246 limits assumed): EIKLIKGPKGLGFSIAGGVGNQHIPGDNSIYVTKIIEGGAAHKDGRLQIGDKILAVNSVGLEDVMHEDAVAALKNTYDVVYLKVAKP

[4] = MTD studies and renal toxicity in rats (creatinine, BUN)
[5] = Plasma concentrations 15 minutes post subcutaneous dose (animals of the 3PVO model); assay type: in vivo, rat
Procedure: Unlike transient models of stroke in rats where much lower doses are required for neuroprotection, neuroprotection in 3 pial vessel occlusion models of stroke seems to require plasma concentrations of nerinetide at or above 2 ug/mL (or molar equivalent). […] Although the plasma levels continue to increase through about 3 hours then decrease, it is important to achieve rapid accumulation in the blood and brain for emergency indications like stroke. […] For pharmacokinetic sample analysis, calibration standard samples at concentrations of 0, 2.5, 5, 10, 15, 20 and 40 ug/mL of nerinetide were prepared by spiking 1 μL of the appropriate stock to 100 μL of plasma. […] Data is presented as mean±SD.

[6] = NA-3 pharmacokinetics after subcutaneous injection in non-human primates; assay type: in vivo, cynomolgus macaques; details: for plasma concentrations achieved: cynomolgus macaques
From the text: All values are presented as mean±SD; Statistical significance when compared to nerinetide alone is indicated as * (one-way ANOVA with post-hoc turkey's correction, *P<0.01). (Cmax: maximum plasma concentrations based on the extrapolated time-zero value; t1/2: half-life at terminal phase; tmax: time to reach Cmax; AUC0-t: area under the concentration-time curve from 0 to the last measured value; AUC0-inf: extrapolated area under the concentration-time curve from 0 to infinity; Cl: total clearance). Data is presented as mean±SD of three-four animals per group. The (-) represent data not reported due to an extrapolation of the AUC0-inf greater than 20% and R^2 lower than 0.9.

[7] = Physiologic parameters of NHP animals post NA-3 subcutaneous dose; assay type: in vivo, cynomolgus macaques
histamine release [8] = experiment: Histamine release in rats, plasma histamine ELISA; details: rats
Procedure: as §5, §6

[9] = Pharmacokinetic analysis in rats (subcutaneous, pulmonary instillation, intravenous, intramuscular), HPLC
Procedure: as §1, §2, §3, §4

PSD-95 PDZ domain 2 [10] = biological target: PSD-95 PDZ domain 2 (UniProt P78352); experiment: competitive ELISA on coated PSD95PDZ2
PSD95PDZ2 [11] = biological target: T1, PSD95PDZ2; experiment: direct ELISA; biotinylated peptide (Bio-D-NA1)
Target sequence in this assay (P78352 160-246): as the sequence (P78352 160-246 limits assumed) above

PSD-95 PDZ domain 2 [12] = biological target: PSD-95 PDZ domain 2 (UniProt P78352); experiment: competitive ELISA on coated PSD95PDZ2, competitor biotinylated NA-1
PSD95PDZ2 [13] = biological target: T1, PSD95PDZ2; experiment: direct ELISA; biotinylated peptide (Bio-D-Tat-L-NA1); unit printed "um"
Target sequence in this assay (P78352 160-246): as the sequence (P78352 160-246 limits assumed) above

plasmin = experiment: digested with plasmin
[14] = rat plasma in vitro with tPA administered simultaneously

PSD-95 PDZ domain 2, sequence (P78352 160-246 limits assumed): as above
tPA, sequence (P00750 36-562): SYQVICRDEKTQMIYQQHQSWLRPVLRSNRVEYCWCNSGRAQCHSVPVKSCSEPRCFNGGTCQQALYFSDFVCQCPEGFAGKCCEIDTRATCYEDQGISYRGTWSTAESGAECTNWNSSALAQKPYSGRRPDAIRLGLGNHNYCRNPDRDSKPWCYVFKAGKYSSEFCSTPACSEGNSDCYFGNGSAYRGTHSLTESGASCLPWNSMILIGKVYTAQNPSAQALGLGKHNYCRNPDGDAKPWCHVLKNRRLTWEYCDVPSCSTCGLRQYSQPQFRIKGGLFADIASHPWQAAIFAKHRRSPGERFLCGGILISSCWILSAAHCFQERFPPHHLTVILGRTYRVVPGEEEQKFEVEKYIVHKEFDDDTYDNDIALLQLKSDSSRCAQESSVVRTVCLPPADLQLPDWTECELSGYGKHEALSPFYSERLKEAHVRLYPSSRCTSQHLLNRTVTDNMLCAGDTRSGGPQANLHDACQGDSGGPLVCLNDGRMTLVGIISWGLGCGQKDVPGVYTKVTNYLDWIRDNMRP

CC[C@H](C)[C@H](NC(=O)[C@H](CO)NC(=O)[C@H](CO)NC(=O)[C@H](CC(C)C)NC(=O)[C@H](CCCCN)NC(=O)[C@@H](CCCNC(=N)N)NC(=O)[C@@H](CCCNC(=N)N)NC(=O)[C@@H](CCCNC(=N)N)NC(=O)[C@@H](CCC(N)=O)NC(=O)[C@@H](CCCNC(=N)N)NC(=O)[C@@H](CCCNC(=N)N)NC(=O)[C@@H](CCCCN)NC(=O)[C@@H](CCCCN)NC(=O)[C@@H](CCCNC(=N)N)NC(=O)CNC(=O)[C@H](N)Cc1ccc(O)cc1)C(=O)N[C@@H](CCC(=O)O)C(=O)N[C@@H](CO)C(=O)N[C@@H](CC(=O)O)C(=O)N[C@H](C(=O)O)C(C)C [D-Tat-L-2B9C] (HELM PEPTIDE1{[dY].G.[dR].[dK].[dK].[dR].[dR].[dQ].[dR].[dR].[dR].K.L.S.S.I.E.S.D.V}$$$$V2.0; N-terminus and C-terminus assumed)
AUC compared with subcutaneous NA-1 [1]: increased Cmax and AUC relative to subcutaneous NA-1 but not to the same extent | Cmax compared with subcutaneous NA-1 [1]: increased Cmax and AUC relative to subcutaneous NA-1 but not to the same extent | histamine release (histamine release [2]): did result in significant histamine release | degradation, control treatment with tPA (tPA): no degradation | pIC50 (PSD95PDZ2 [3]): > 5.30 | IC50's relative to each other (PSD95PDZ2 [3]): within a factor of two of each other | EC50 (compared between peptides) (PSD95PDZ2 [3]; PSD-95 domain 2, FIG. 12): about the same within experimental error | creatinine versus the same dose level of NA-3 ([4]; rats, subcutaneous 25 mg/kg): Much less creatinine is observed

CC[C@H](C)[C@H](NC(=O)[C@@H](CO)NC(=O)[C@@H](CO)NC(=O)[C@@H](CC(C)C)NC(=O)[C@@H](CCCCN)NC(=O)[C@@H](CCCNC(=N)N)NC(=O)[C@@H](CCCNC(=N)N)NC(=O)[C@@H](CCCNC(=N)N)NC(=O)[C@@H](CCC(N)=O)NC(=O)[C@@H](CCCNC(=N)N)NC(=O)[C@@H](CCCNC(=N)N)NC(=O)[C@@H](CCCCN)NC(=O)[C@@H](CCCCN)NC(=O)[C@@H](CCCNC(=N)N)NC(=O)CNC(=O)[C@H](N)Cc1ccc(O)cc1)C(=O)N[C@@H](CCC(=O)O)C(=O)N[C@@H](CO)C(=O)N[C@@H](CC(=O)O)C(=O)N[C@H](C(=O)O)C(C)C [NA-3, ygrkkrrqrrrklssIESDV] (HELM PEPTIDE1{[dY].G.[dR].[dK].[dK].[dR].[dR].[dQ].[dR].[dR].[dR].[dK].[dL].[dS].[dS].I.E.S.D.V}$$$$V2.0; N-terminus and C-terminus assumed)
plasma concentration compared to nerinetide at the same dose ([5]; 15 min post subcutaneous dose): higher concentration at 15 min post-dose | relation between treatment dose and Cmax ([5]; single subcutaneous administration, 2.5, 7.6, 25 mg/kg): dose proportionality between the treatment dose and the Cmax | plasma concentrations achieved ([6]; subcutaneous 7.6 mg/Kg): able to achieve plasma concentrations higher than those demonstrated to be effective in humans | plasma concentrations achieved ([6]; subcutaneous 25 mg/kg): able to achieve plasma concentrations higher than those demonstrated to be effective in humans | Cmax and AUC versus nerinetide IV infusion ([6]; subcutaneous 25 mg/kg): greater Cmax and AUC than nerinetide IV infusion | drops in blood pressure compared to NA-1 [7]: No significant drops in blood pressure were observed | safety issues in physiologic parameters compared to intravenous nerinetide [7]: no significant safety issues were identified | pIC50 (PSD95PDZ2 [3]): > 5.30 | IC50's relative to each other (PSD95PDZ2 [3]): within a factor of two of each other | histamine release (histamine release [8]; 25 mg/kg SQ): resulted in histamine release but still much less than 7.6 mg/kg IV | histamine release (histamine release [8]; subcutaneous 2.8 mg/kg): did not result in significant histamine release | histamine release (histamine release [8]; subcutaneous 8.3 mg/kg): did not result in significant histamine release | therapeutic index ([4]; minimum effective dose versus highest no observed adverse effect level): low | creatinine and BUN values out of range ([4]; rats, subcutaneous 7.6 mg/kg or 2.6 mg/kg): No values out of range were observed | persistence of creatinine and BUN increases ([4]; rats, subcutaneous 25 mg/kg): persisted through day 7 | creatinine and BUN (blood urea nitrogen) ([4]; rats, subcutaneous 25 mg/kg or 50 mg/kg, day 1 post dose): dose-dependent increases in creatinine and BUN | creatinine levels on reducing the dose 2-fold ([4]; rats, subcutaneous, versus 25 mg/kg NA-3, pre and after 1 day): significant reduction of the NA-3 creatinine levels | plasma concentration and plasma exposure relative to intrapulmonary NA-1 ([9]; pulmonary instillation): higher plasma concentration and a greater plasma exposure | CMax after pulmonary instillation ([9]; pulmonary instillation 25 mg/kg): higher CMax than for NA-1 or D-Tat-L-2B9C | AUC compared with subcutaneous NA-1 ([9]; subcutaneous 25 mg/kg): increased | Cmax compared with subcutaneous NA-1 ([9]; subcutaneous 25 mg/kg): increased | dose dependence of Cmax and AUC ([9]; subcutaneous 25, 8.3, 2.8 mg/kg): dose-dependent increasing linearly with dose

D-NA-1 (peptide)
fold change of EC50 against NA-1 and D-Tat-L-2B9C (PSD-95 PDZ domain 2 [10]): 10 fold

D-NA-1 NA1
pEC50 (PSD95PDZ2 [11]): 5.86

D-TAT-L-2B9c (peptide)
ratio of IC50 against D-Tat-L-IESDV (PSD-95 PDZ domain 2 [12]): < 2 fold

D-Tat-L-NA-1
pEC50 (PSD95PDZ2 [13]): 6.86

YGRKKRRQRRRKLSSIESDV
fragment found (plasmin): RRQRRRKLSSIESDV; also recorded: RQRRRKLSSIESDV; also recorded: QRRRKLSSIESDV; also recorded: RRKLSSIESDV; also recorded: RKLSSIESDV; also recorded: KLSSIESDV; also recorded: LSSIESDV

yGrkkrrqrrrKLSSIESDV ([dY]G[dR][dK][dK][dR][dR][dQ][dR][dR][dR]KLSSIESDV)
not cleaved [14]: only negligible degradation when co-administered with tPA
